# Measured values taken from PMC10180065, “Mechanistic Studies of Arene–Ruthenium(II) Complexes with Carbothioamidopyrazoles as Alternative Cancer Drugs” (Molecules, 2023).
# Where two headings read alike, the source gives them in different places.
# Assays:
# HCC38 = test: MTT cytotoxicity, HCC38; type: cell-based, human; details: 48 h incubation, read-out: Cytotoxic effect, IC50
# Experimental: (§1) Cytotoxicity was evaluated against fifteen adherent human cancer cell lines using the MTT test: colorectal adenocarcinoma cells Caco2 (ATCC® HTB-37™), colorectal adenocarcinoma cells HT29 (ATCC® HTB-38™), colon colorectal carcinoma HCT116 (ATCC® CCL-247™), colon adenocarcinoma COLO205 (ATCC® CCL-222™), colorectal adenocarcinoma SW620 (ATCC® CCL-227™), colorectal adenocarcinoma grade IV LoVo (ATCC® CCL-229™), hepatocellular carcinoma Hep 3b (ATCC® HB-8064™), endometrium adenocarcinoma HEC1A (ATCC® HTB-112™), Ishikawa (99040201; Sigma–Aldrich Sigma, St. Louis, MO, USA), cervical adenocarcinoma cells HeLa (ATCC® CCL-2™), lung epithelial carcinoma A549 (ATCC® CRM-CCL-185™), breast epithelial adenocarcinoma cell positive for estrogen and progesterone receptors MCF7 (ATCC® HTB-22™) and negative for expression of estrogen receptor HCC38 (ATCC® CRL-2314™), acute promyelocytic leukemia HL-60 (ATCC® CCL-240™), skin melanoma WM115 (ATCC® CRL-1676™), and 1 suspension cancer cell line: acute lymphoblastic leukemia NALM6 (purchased from the German Collection of Microorganisms and Cell Cultures). HT29, NALM6, HCC-38 and HL-60 cells were cultured in RPMI 1640 medium (Thermo Fisher Scientific, Waltham, MA, USA) supplemented with 10% fetal bovine serum and antibiotic (gentamicin 25 μg ml^−1) (Gibco, Grand Island, New York, NY, USA). For the remaining tumor cell lines, Dulbecco’s minimal essential medium (DMEM, Lonza, Visp, Switzerland) supplemented with 10% fetal bovine serum and antibiotic instead of RPMI 1640 was used. In addition, Human Microvascular Endothelial Cells (HMEC1), which were obtained from the American Type Culture Collection (Manassas, VA, USA), were used as a model of normal cells. HMEC-1 were cultured in MCDB131 medium (Corning Life Sciences, Corning, NY, USA), supplemented with 10% fetal bovine serum, 10 ng/mL Epidermal Growth Factor (Millipore, Burlington, MA, USA) and 10 mM glutamine (Corning Life Sciences). All cells were grown at 37 °C in humidified atmosphere of 5% CO2 in air. The exponential growth of cells was maintained by regular passaging at 90% confluence three times a week using 0.025% trypsin/EDTA (Gibco, Grand Island, New York, NY, USA).
# (§2) The cytotoxicity was tested by a standard MTT [3-(4,5-dimethylthiazol-2-yl)-2,5-diphenyltetrazolium bromide] (Sigma, St. Louis, MO, USA) microplate cell viability assay. The anticancer activity of the investigated compounds was evaluated in vitro on the basis of their ability to inhibit the proliferation of various cancer cells. Exponentially growing cells were seeded a day before the experiment into a 96-well microplate (Nunc, Roskilde, Denmark) at a density up to 6–8 × 10^3 cells/mL (depending on the cell line) and exposed to the test compounds at a wide range of concentrations for 48 h. Subsequently, various concentrations of the studied compounds (10^−7–10^−5 M) freshly prepared in DMSO (final concentration of <0.1% DMSO) and diluted with complete culture medium were added. After 48 h incubation, the cells were immediately subjected to a cell viability assay. At this time point, the number of viable cells in each well was estimated by the MTT test. Briefly, 50 µL (5 mg/mL final concentration) of MTT was added to each microplate well. This procedure was then followed by a three- to four-hour incubation at 37 °C. After incubation, MTT solution was replaced with 100 µL DMSO/well, which solubilized the formazan crystals formed by the dehydrogenases of metabolically active cells. Purple formazan absorbance was measured spectrophotometrically at 570 nm.
# HT29 = test: MTT cytotoxicity, HT29; type: cell-based, human; details: read-out: Cytotoxic effect, IC50
# Experimental: as §1, §2
# LoVo = test: MTT cytotoxicity, LoVo; type: cell-based, human; details: 48 h incubation, read-out: Cytotoxic effect, IC50
# Experimental: as §1, §2
# Caco2 = test: MTT cytotoxicity, Caco2; type: cell-based, human; details: read-out: Cytotoxic effect, IC50
# Experimental: as §1, §2
# NALM6 = test: MTT cytotoxicity, NALM6; type: cell-based, human; details: read-out: Cytotoxic effect, IC50
# Experimental: as §1, §2
# WM115 = test: MTT cytotoxicity, WM115; type: cell-based, human; details: read-out: Cytotoxic effect, IC50
# Experimental: as §1, §2
# Colo205 = test: MTT cytotoxicity, Colo205; type: cell-based, human; details: read-out: Cytotoxic effect, IC50
# Experimental: as §1, §2
# MCF7 = test: MTT cytotoxicity, MCF7; type: cell-based, human; details: 48 h incubation, read-out: Cytotoxic effect, IC50
# Experimental: as §1, §2
# A549 = test: MTT cytotoxicity, A549; type: cell-based, human; details: 48 h incubation, read-out: Cytotoxic effect, IC50
# Experimental: as §1, §2
# HEC1A = test: MTT cytotoxicity, HEC1A; type: cell-based, human; details: 48 h incubation, read-out: Cytotoxic effect, IC50
# Experimental: as §1, §2
# Ishikawa = test: MTT cytotoxicity, Ishikawa; type: cell-based, human; details: 48 h incubation, read-out: Cytotoxic effect, IC50
# Experimental: as §1, §2
# SW620 = test: MTT cytotoxicity, SW620; type: cell-based, human; details: read-out: Cytotoxic effect, IC50
# Experimental: as §1, §2
# HL60 = test: MTT cytotoxicity, HL60; type: cell-based, human; details: read-out: Cytotoxic effect, IC50
# Experimental: as §1, §2
# Hep 3b = test: MTT cytotoxicity, Hep 3b; type: cell-based, human; details: 48 h incubation, read-out: Cytotoxic effect, IC50
# Experimental: as §1, §2
# Hela = test: MTT cytotoxicity, Hela; type: cell-based, human; details: 48 h incubation, read-out: Cytotoxic effect, IC50
# Experimental: as §1, §2
# Lipophilicity by RP-TLC = type: physicochemical; set-up: key: RM = log(1/Rf − 1), Rf = a/b; details: eluent AcCN: H2O at 30–70% v/v, 22 °C
# Experimental: All the experimental solutions of standard substances (0.1 mg/mL) were prepared by dissolving ligands (1a–1d) or ruthenium complexes (2a/3a–2d/3d) in ethanol. Commercially-available octadecyl-modified silica aluminum sheets (20 × 20 cm) were cut into 5 × 10 cm plates. The plates were manually spotted with 1.0 μL of freshly prepared solutions using automatic pipets, 5 mm from each edge. The chromatograms for all compounds (1a/2a/3a–1d/2d/3d) were developed using a horizontal developing chamber and the solvent migration distance was about 4.5 cm. The plates were visually inspected under UV light at 254 nm. Each zone was clearly marked and its distance was manually measured. The RP-TLC analyses of lipophilicity were performed at ambient temperature (22 °C). In this experiment, all measurements were performed in triplicate and the obtained results were used in further calculations. The acetonitrile and water mixtures for ligands 1a–1d and arene–ruthenium(II) complexes 2a/3a–2d/3d were used as mobile phases, with […] content increasing in the range of 30–70% v/v, at 5% intervals. Values of the chromatographic retention coefficient Rf (as shown Formula (1)) and RM (as shown Formula (2)), based on received chromatograms, were calculated and converted as follows:(1) Rf=a/b (2) RM=log1/Rf−1
# [1] = test system: human microvascular endothelial cell line HMEC1; test: MTT cytotoxicity, normal endothelial cells HMEC1; type: cell-based; details: for IC50: HMEC1 normal endothelial cells, 48 h incubation, read-out: Cytotoxic effect, IC50; for IC50 for HMEC-1 higher than for cancer cells (selectivity): HMEC-1 vs cancer cells
# Experimental: as §1, §2
Structure (SMILES),IC50 (HCC38) [µM],IC50 (HT29; 48 h incubation) [µM],IC50 (LoVo) [µM],IC50 (Caco2; 48 h incubation) [µM],IC50 (NALM6; 48 h incubation) [µM],IC50 (WM115; 48 h incubation) [µM],IC50 (Colo205; 48 h incubation) [µM],IC50 (MCF7) [µM],IC50 (A549) [µM],IC50 (HEC1A) [µM],IC50 (Ishikawa) [µM],IC50 (SW620; 48 h incubation) [µM],IC50 (HL60; 48 h incubation) [µM],IC50 (Hep 3b) [µM],IC50 (Hela) [µM],"Lipophilicity, RM (Lipophilicity by RP-TLC)",IC50 [1] [µM],IC50 for HMEC-1 higher than for cancer cells (selectivity) [1],other results
Cc1cc(C)n(C(N)=S)n1.Cc1ccc(C(C)C)cc1.F[P-](F)(F)(F)(F)F.[Cl-].[Ru+2] [3a],> 200,123 ± 3.9,127 ± 3.7,107 ± 8.4,46.1 ± 5.1,64.1 ± 5.1,59.6 ± 3.4,> 200,> 200,77.2 ± 4.4,> 200,63.9 ± 2.7,79.7 ± 7.2,55.3 ± 2.6,98.7 ± 7.4,2.55,> 200,3–5 times,
CCc1cc(CC)n(C(N)=S)n1.Cc1ccc(C(C)C)cc1.[Cl-].[Cl][Ru+] [2b],63.7 ± 4.4,107 ± 5.9,59.7 ± 3.2,> 200,40 ± 5.6,54.9 ± 5.9,115 ± 4.1,82.7 ± 3,> 200,36.4 ± 1.7,51.4 ± 1.9,107 ± 3.4,80.8 ± 3.9,> 200,164 ± 8.5,2.59,125 ± 2.1,3–5 times,
Cc1cc(O)n(C(N)=S)n1.Cc1ccc(C(C)C)cc1.F[P-](F)(F)(F)(F)F.[Cl-].[Ru+2] [3d],188 ± 6.4,185.2 ± 1.8,110 ± 6.9,162 ± 6.1,> 200,> 200,> 200,> 200,152 ± 2.8,128 ± 2.1,> 200,> 200,> 200,> 200,> 200,2.39,,,
Cc1cc(O)n(C(N)=S)n1 [1d],,,,,,,,,,,,,,,,1.29,,,"IC50 (HCC38; Homo sapiens): > 200 µM; IC50 (HT29; Homo sapiens, HT-29, 48 h incubation): > 200 µM; IC50 (LoVo; Homo sapiens): > 200 µM; IC50 (Caco2; Homo sapiens, Caco-2, 48 h incubation): > 200 µM; IC50 (NALM6; Homo sapiens, NALM-6, 48 h incubation): > 200 µM; IC50 (WM115; Homo sapiens, WM-115, 48 h incubation): 90.9 ± 10.2 µM; IC50 (Colo205; Homo sapiens, COLO 205, 48 h incubation): > 200 µM; IC50 (MCF7; Homo sapiens): > 200 µM; IC50 (A549; Homo sapiens): > 200 µM; IC50 (HEC1A; Homo sapiens, HEC-1-A): 99.1 ± 5.7 µM; IC50 (Ishikawa; Homo sapiens): > 200 µM; IC50 (SW620; Homo sapiens, SW-620, 48 h incubation): > 200 µM; IC50 (HL60; Homo sapiens, HL-60, 48 h incubation): > 200 µM; IC50 (Hep 3b; Homo sapiens, Hep3B): > 200 µM; IC50 (Hela; Homo sapiens): > 200 µM"
